{"source": "patent US20220047475A1", "about": "“COSMETIC USE OF A SHORT CHAIN FATTY ACID (SCFA) FOR PREVENTING AND/OR TREATING DRY SKIN AND/OR AGED SKIN” (L'OREAL, priority 2018, published 2022)", "key": {"[1]": {"test_system": "sebocytes", "test": "High content screening (HCS) imaging of sebocytes: lipid droplets (BODIPY) and nuclei (Hoechst)", "assay_type": "cell-based", "conditions": "for Nuclear count / Size of nucleus: 5 mmol.L^−1, mean ± SD, holocrine secretion", "protocol": "Cell culture. […] D2650) in liquid nitrogen have been thawed in a water bath at 37° C. and directly washed with prewarmed […] culture media (Table 1). 3T3m cells were plated at 40.10^3 cells·cm^2 in a 175 cm^2 flask (Thermoscientific Ref. 159910) and incubated 2 hours at 37° C., 5% CO2. […] Vials containing sebocytes were thawed in a water bath at 37° C. and directly washed with prewarmed […] culture media. Sebocytes were plated at 2600 cells·cm^2 in a 175 cm^2 flask containing attached 3T3m cells and incubated (37° C., 5% CO2) to reach 70-80% confluence. After 5 days, cells were harvested using trypsin (Gibco Ref. 25300) and transferred in 96 well plates (10×10^3 cells per well, Greiner Bio-one Ref. 655956) and incubated (37° C., 5% CO2). Cell treatment. […] For valeric acid, the pH in modified cell media was neutralized with NaOH (Sodium hydroxide, Sigma 283060). […]) were both dissolved in pure ethanol (Merck Ref. 1.00983) for a final concentration per well of 60 μmar'. For these treatments, modified cell media supplemented with pure ethanol was used as controls. Supernatants (25%) sampled in exponential and stationary phases were neutralized with NaOH and were controlled with modified cell media supplemented at 25% with pure bacterial culture media. All conditions were repeated 8 times (n=8) for SOFA experiments and 24 times (n=24) for supernatants assays. Microplates were incubated 48 hours (37° C., 5% CO2) and directly sampled and/or stained and analyzed. Cell staining. […] Lipid droplets were stained with BODIPY (Invitrogen Ref. […]) diluted in DPBS solution supplemented with delipidated BSA (Bovin Serum Albumin, Sigma Ref. A7906). Nuclei were stained with Hoechst (Invitrogen, Ref. H3570) diluted in DPBS solution. High content imaging, images analysis and statistics. […] Images were analyzed using the MetaXpress image based module Transfluor (Molecular Devices). Results were exported into GraphPad Prism (version 7.01) to determine statistical significance using One-way ANOVA and expressed on bar graph as mean±SD or on box plot±min and max. *: […] Sebocytes were seeded in 96 well plates, followed by treatment with SOFA and/or LCFAs with at least 8 replicate wells (1 column) for each condition."}, "[2]": {"test_system": "sebocytes", "test": "Quantification of secreted triglycerides (TGs) in sebocyte supernatants", "assay_type": "cell-based", "conditions": "for % of excreted TGs (compared to control) / FC (compared to control) of excreted TGs: 5 mmol.L^−1, 24 h", "protocol": "Cell culture. Vials containing 3T3 mitomycine treated cells stored in 20% DMSO (Dimethylsulf oxide, Sigma Ref. D2650) in liquid nitrogen have been thawed in a water bath at 37° C. and directly washed with prewarmed G7F culture media (Table 1). 3T3m cells were plated at 40.10^3 cells·cm^2 in a 175 cm^2 flask (Thermoscientific Ref. 159910) and incubated 2 hours at 37° C., 5% CO2. Sebocytes were obtained from primary cell line and stored in 10% DMSO in liquid nitrogen. Vials containing sebocytes were thawed in a water bath at 37° C. and directly washed with prewarmed G7F culture media. Sebocytes were plated at 2600 cells·cm^2 in a 175 cm^2 flask containing attached 3T3m cells and incubated (37° C., 5% CO2) to reach 70-80% confluence. After 5 days, cells were harvested using trypsin (Gibco Ref. 25300) and transferred in 96 well plates (10×10^3 cells per well, Greiner Bio-one Ref. 655956) and incubated (37° C., 5% CO2).\nCell treatment. After 24 hours, cell media was replaced by modified cell media (G7F w/o hydrocortisone and w/o antibiotic-antimycotic) supplemented with: modified cell media (control), sodium acetate (CH3COONa, Sigma Ref. 32319), sodium propionate (CH3CH2COONa, Sigma Ref. P1880), sodium butyrate (CH3(CH2)2COONa Sigma Ref. 303410), valeric acid (CH3(CH2)3COOH, Sigma Ref. 75054). For valeric acid, the pH in modified cell media was neutralized with NaOH (Sodium hydroxide, Sigma 283060). Palmitic acid (C16:0, Cayman Ref. 10006627) and linoleic acid (C18:2 cis 9.12, Sigma Ref. L1376) were both dissolved in pure ethanol (Merck Ref. 1.00983) for a final concentration per well of 60 μmar′. For these treatments, modified cell media supplemented with pure ethanol was used as controls. Supernatants (25%) sampled in exponential and stationary phases were neutralized with NaOH and were controlled with modified cell media supplemented at 25% with pure bacterial culture media. All conditions were repeated 8 times (n=8) for SOFA experiments and 24 times (n=24) for supernatants assays. […]\nTriglycerides quantification. Assays have been realized using Triglycerides Assays Kit—Quantification (Abcam, ref. Ab65336) following manufacturer's instructions. Each supernatant of the 8 replicates have been sampled (50 μl) and analyzed following the colorimetric detection method of the kit (OD 570 nm) using a plate reader Infinite 200PRO (Tecan).\nHolocrine secretion is the final step of sebogenic process wherein the mature cells burst to release the lipid contents. Promotion of holocrine secretion by SOFA was based on observations and interpretations of a lower number of cells in association with an enlargement of nuclear area."}, "[3]": {"conditions": "sebocytes, 2.5, 5, 10 and 15 mmol·l^−1"}}}
{"compound": "CCCC(=O)[O-].[Na+]", "note": "[butyrate, sodium butyrate]", "values": [{"measurement": "nuclear count per well", "setting": "[1]; [3]", "result": "decrease in the nuclear count per well"}, {"measurement": "FC of TGs excreted", "setting": "[2]; 15 mmol·l−1, 24 h", "result": "FC of TGs in B15>FC of TGs in B5"}]}
{"compound": "CC(=O)[O-].[Na+]", "note": "[Acetate, sodium acetate, reference compound]", "values": [{"measurement": "de novo lipid induction compared to the control", "setting": "[1]; sebocytes, 5 mmol.L^−1", "result": "significant"}, {"measurement": "Nuclear count", "setting": "[1]; sebocytes", "result": "18574 ± 2148 ="}, {"measurement": "Size of nucleus", "setting": "[1]; sebocytes", "result": "215 ± 5 ="}, {"measurement": "Nuclear count", "setting": "[1]; sebocytes, listed as acetate", "result": "no effect"}, {"measurement": "Size of nucleus", "setting": "[1]; sebocytes, listed as acetate", "result": "no effect"}, {"measurement": "% of excreted TGs (compared to control)", "setting": "[2]", "result": "−10", "unit": "% ="}, {"measurement": "FC (compared to control) of excreted TGs", "setting": "[2]", "result": "FC = 0.90, ="}]}
{"compound": "CCCCC(=O)O", "note": "[valerate, valeric acid]", "values": [{"measurement": "nuclear count per well", "setting": "[1]; [3]", "result": "decrease in the nuclear count per well"}, {"measurement": "% of TGs excreted", "setting": "[2]; 15 mmol·l−1, 24 h", "result": "+100%"}, {"measurement": "FC of TGs excreted", "setting": "[2]; 15 mmol·l−1, 24 h", "result": "~2"}]}
{"compound": "CCC(=O)[O-].[Na+]", "note": "[Proprionate, sodium propionate]", "values": [{"measurement": "nuclear count per well", "setting": "[1]; [3]", "result": "decrease in the nuclear count per well"}, {"measurement": "size of LDs compared to controls", "setting": "[1]; [3]", "result": "LDs increased in size as the concentration of propionate increased"}, {"measurement": "number of LDs per cell", "setting": "[1]; sebocytes, pure propionate 5 mmol·l^−1", "result": "about 12 LDs/cell"}, {"measurement": "% of excreted TGs (compared to control)", "setting": "[2]; listed as P5", "result": "+20%"}, {"measurement": "FC (compared to control) of excreted TGs", "setting": "[2]; listed as P5", "result": "~1.2"}]}
